From PubChem BioAssay (NCI)
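Results reflect a 48-hour exposure of cells in 96-well plates to compound at five concentrations. GI50 is the concentration that inhibits growth by half. TGI: total growth inhibition.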

Tests used:
Test in all cases: growth of human tumour cells (NCI), 48 h
[1] = system: MALME-3M melanoma
[2] = system: OVCAR-3 ovarian
[3] = system: MDA-MB-231 breast
[4] = system: KM12 colon
[5] = system: SF-268 CNS
[6] = system: PC-3 prostate
[7] = system: MDA-MB-435
[8] = system: SK-MEL-2 melanoma
[9] = system: LOX IMVI melanoma
[10] = system: ACHN renal
[11] = system: IGROV1 ovarian
[12] = system: EKVX NSCLC
[13] = system: RPMI-8226 leukemia
[14] = system: UACC-62 melanoma
[15] = system: A549 NSCLC
[16] = system: UACC-257 melanoma
[17] = system: HCT-15 colon
[18] = system: HL-60(TB) leukemia
[19] = system: HOP-92 NSCLC
[20] = system: SN12C renal
[21] = system: TK-10 renal
[22] = system: SK-MEL-5 melanoma
[23] = system: SW-620 colon
[24] = system: HCT-116 colon
[25] = system: SR leukemia
[26] = system: BT-549 breast
[27] = system: CCRF-CEM leukemia
[28] = system: OVCAR-8 ovarian
[29] = system: NCI-H522 lung
[30] = system: SK-OV-3 ovarian
[31] = system: K-562 leukemia
[32] = system: T-47D breast
[33] = system: OVCAR-4 ovarian
[34] = system: MOLT-4 leukemia
[35] = system: DU-145 prostate
[36] = system: SF-295 CNS
[37] = system: SNB-75 CNS
[38] = system: U251 CNS
[39] = system: HS 578T breast
[40] = system: HOP-62 NSCLC
[41] = system: HCC-2998 colon
[42] = system: SNB-19 CNS
[43] = system: A498 renal
[44] = system: MCF7 breast
[45] = system: NCI-H460 lung
[46] = system: SK-MEL-28 melanoma
[47] = system: 786-0 renal
[48] = system: SF-539 CNS
[49] = system: NCI/ADR-RES ovarian
[50] = system: OVCAR-5 ovarian
[51] = system: M14 melanoma
[52] = system: NCI-H23 lung
[53] = system: HT29 colon
[54] = system: NCI-H226 lung
[55] = system: UO-31 renal
[56] = system: COLO 205 colon
[57] = system: RXF 393 renal
[58] = system: CAKI-1 renal

## Cn1ncc(NC(=O)c2nc(-c3c(F)cccc3F)sc2N)c1N1CC[C@@H](N)[C@H](F)CC1
[1]
  GI50: 5.18 µM
  TGI: 21 µM
[2]
  GI50: 11.1 µM
  TGI: 31.3 µM
[3]
  GI50: 6.93 µM
  TGI: 31 µM
[4]
  GI50: 12.4 µM
  TGI: 54.1 µM
[5]
  GI50: 3.27 µM
  TGI: 32.6 µM
[6]
  GI50: 3.6 µM
  TGI: 32 µM
[7]
  GI50: 3.61 µM
  TGI: 19.4 µM
[8]
  GI50: 3.45 µM
  TGI: 13.5 µM
[9]
  GI50: 5.71 µM
  TGI: 21 µM
[10]
  GI50: 2.67 µM
  TGI: 16.7 µM
[11]
  GI50: 2.88 µM
  TGI: 19.8 µM
[12]
  GI50: 2.95 µM
  TGI: 50.7 µM
[13]
  GI50: 2.54 µM
  TGI: 29.3 µM
[14]
  GI50: 5.33 µM
  TGI: 25.2 µM
[15]
  GI50: 4.83 µM
  TGI: 25.6 µM
[16]
  GI50: 14.4 µM
  TGI: 30.6 µM
[17]
  GI50: 3.86 µM
  TGI: 28.7 µM
[18]
  GI50: 4.22 µM
  TGI: 17.3 µM
[19]
  GI50: 4.12 µM
  TGI: 31.3 µM
[20]
  GI50: 3.69 µM
  TGI: 43.3 µM
[21]
  GI50: 2.81 µM
  TGI: 41.7 µM
[22]
  GI50: 4.77 µM
  TGI: 17.8 µM
[23]
  GI50: 3.65 µM
  TGI: 24.8 µM
[24]
  GI50: 4.33 µM
  TGI: 60.3 µM
[25]
  GI50: 2.37 µM
  TGI: 25 µM
[26]
  GI50: 2.39 µM
  TGI: 16.5 µM
[27]
  GI50: 4.55 µM
  TGI: > 100 µM
[28]
  GI50: 8.65 µM
  TGI: 37.1 µM
[29]
  GI50: 2.67 µM
  TGI: 14.9 µM
[30]
  GI50: 1.42 µM
  TGI: 6 µM
[31]
  GI50: 3.45 µM
  TGI: 28 µM
[32]
  GI50: 3.34 µM
  TGI: 34.2 µM
[33]
  GI50: 4.17 µM
  TGI: 44.3 µM
[34]
  GI50: 3.54 µM
  TGI: 30.5 µM
[35]
  GI50: 5.19 µM
  TGI: 42.6 µM
[36]
  GI50: 8.75 µM
  TGI: 24 µM
[37]
  GI50: 1.06 µM
  TGI: 8.83 µM
[38]
  GI50: 8.54 µM
  TGI: 23.9 µM
[39]
  GI50: 2.99 µM
  TGI: 14.8 µM
[40]
  GI50: 3.56 µM
  TGI: 22.8 µM
[41]
  GI50: 14.2 µM
  TGI: 35.2 µM
[42]
  GI50: 26.3 µM
  TGI: 86.5 µM
[43]
  GI50: 1.17 µM
  TGI: 7.55 µM
[44]
  GI50: 2.8 µM
  TGI: 13.9 µM
[45]
  GI50: 5.02 µM
  TGI: 21.2 µM
[46]
  GI50: 10.4 µM
  TGI: 25.6 µM
[47]
  GI50: 3.75 µM
  TGI: 20.8 µM
[48]
  GI50: 3.85 µM
  TGI: 15.3 µM
[49]
  GI50: 20.5 µM
  TGI: > 89.8 µM
[50]
  GI50: 16.5 µM
  TGI: 54.6 µM
[51]
  GI50: 3.03 µM
  TGI: 18.5 µM
[52]
  GI50: 11.4 µM
  TGI: 34.4 µM
[53]
  GI50: 5.58 µM
  TGI: 27.5 µM
[54]
  GI50: 1.74 µM
  TGI: 27 µM
[55]
  GI50: 1.24 µM
  TGI: 5.67 µM
[56]
  GI50: 3.33 µM
  TGI: 16.7 µM
[57]
  GI50: 2.98 µM
  TGI: 15.3 µM

## c1ccc([P+](c2ccccc2)(c2ccccc2)c2ccc3c4ccc([P+](c5ccccc5)(c5ccccc5)c5ccccc5)c5cccc(c6cccc2c63)c54)cc1
[1]
  GI50: 0.412 µM
  TGI: 2.56 µM
[2]
  GI50: 1.91 µM
  TGI: 11.9 µM
[3]
  GI50: 2.22 µM
  TGI: 9.98 µM
[4]
  GI50: 0.743 µM
  TGI: 3.1 µM
[5]
  GI50: 0.995 µM
  TGI: 20 µM
[6]
  GI50: 1.65 µM
  TGI: 14.3 µM
[7]
  GI50: 0.799 µM
  TGI: 4.21 µM
[8]
  GI50: 2.57 µM
  TGI: 7.58 µM
[9]
  GI50: 2.67 µM
  TGI: 20.7 µM
[10]
  GI50: 3.79 µM
  TGI: > 100 µM
[11]
  GI50: 1.41 µM
  TGI: 7.47 µM
[12]
  GI50: 1.69 µM
  TGI: 35.2 µM
[13]
  GI50: 0.647 µM
  TGI: 4.16 µM
[14]
  GI50: 1.47 µM
  TGI: 4.64 µM
[15]
  GI50: 0.986 µM
  TGI: > 100 µM
[16]
  GI50: 2.12 µM
  TGI: 8.47 µM
[17]
  GI50: 5.89 µM
  TGI: > 100 µM
[18]
  GI50: 2.38 µM
  TGI: 6.25 µM
[19]
  GI50: 1.18 µM
  TGI: 5.44 µM
[20]
  GI50: 1.09 µM
  TGI: 13.7 µM
[21]
  GI50: 4.18 µM
  TGI: > 100 µM
[23]
  GI50: 1.98 µM
  TGI: 10.8 µM
[24]
  GI50: 1.54 µM
  TGI: 10.4 µM
[25]
  GI50: 1.1 µM
  TGI: > 100 µM
[58]
  GI50: 6.15 µM
  TGI: > 100 µM
[26]
  GI50: 0.455 µM
  TGI: 2.69 µM
[27]
  GI50: 2.13 µM
  TGI: 33.3 µM
[28]
  GI50: 1.32 µM
  TGI: > 100 µM
[29]
  GI50: 1.24 µM
  TGI: 13.7 µM
[31]
  GI50: 0.506 µM
  TGI: > 100 µM
[32]
  GI50: 0.621 µM
  TGI: 24.6 µM
[33]
  GI50: 1.89 µM
  TGI: 30.8 µM
[34]
  GI50: 2.37 µM
  TGI: 19.3 µM
[35]
  GI50: 0.811 µM
  TGI: 13.4 µM
[36]
  GI50: 1.24 µM
  TGI: 5.36 µM
[37]
  GI50: 0.435 µM
  TGI: 4.17 µM
[38]
  GI50: 0.445 µM
  TGI: 17.9 µM
[39]
  GI50: 0.574 µM
  TGI: 5.49 µM
[40]
  GI50: 0.931 µM
  TGI: 25.8 µM
[41]
  GI50: 2.28 µM
  TGI: 8.51 µM
[42]
  GI50: 0.714 µM
  TGI: 13.1 µM
[43]
  GI50: 0.889 µM
  TGI: 6.79 µM
[44]
  GI50: 1.25 µM
  TGI: 14.2 µM
[45]
  GI50: 0.692 µM
  TGI: 3.94 µM
[46]
  GI50: 1.67 µM
  TGI: 6.15 µM
[47]
  GI50: 3.04 µM
  TGI: 28.8 µM
[48]
  GI50: 0.477 µM
  TGI: 2.32 µM
[49]
  GI50: 9.41 µM
  TGI: > 100 µM
[50]
  GI50: 2.82 µM
  TGI: > 100 µM
[51]
  GI50: 1.39 µM
  TGI: 7.48 µM
[52]
  GI50: 2.1 µM
  TGI: 13.5 µM
[53]
  GI50: 1.64 µM
  TGI: 13.3 µM
[55]
  GI50: 2.73 µM
  TGI: 78.3 µM
[57]
  GI50: 2.79 µM
  TGI: 25.3 µM
